Results published in US20040009904A1, “APL immunoreactive peptides, conjugates thereof and methods of treatment for aPL antibody-mediated pathologies” (priority 1995, published 2004).
Numbered stars: 1 amine (or outer) side, 2 acyl side, 3 side chain; on linkers, the order of the positions; unused ones are H or OH. Bridge positions count the residues as written; N and C are the ends. Square brackets hold non-standard residues; d marks the D form. Peptide text beside a SMILES is read from it. Abu(4-yl) = O=C([C@H](CC[*:3])N[*:1])[*:2]; hCys = N[C@@H](CCS)C(=O)O

How the values were obtained:
[1] = system: ACA; experiment: Structure Activity Relationship of the Crossreactive ACA Epitope (relative activity); type: binding, human; settings: LJP 688 = 100
Text: Peptide 6641/3G3 (LJP 688) was subjected to a number of analyses. The analyses included truncation at both the N-terminus and the C-terminus, disulfide substitution, substitution of alanine and glycine for amino acids in positions 2 through 8, substitution of branched aliphatic amino acids in positions 2, 4, 5 and 8, substitution of amino acids affecting conformation of the peptide, including substitution of α-methyl amino acids, substitution of basic amino acids in position 7, substitution of D-amino acids in positions 2 through 9, and the substitution of N-α-methyl amino acids in positions 1 through 9.

[2] = biological target: ACA-6501; experiment: Competitive binding peptide ACA ELISA, cardiolipin/β2-GPI-coated plates; design: species or system human; settings: for with ACA 6501 150 ug/mL: Optimization of Peptide 3G3, inf = no 50% inhibition; for IC50 Values, ACA-6501: cyclic thioether analogs; for Percent Inhibition of AffACA by Peptide Monomers, 6501: peptide 1 mg/mL, affinity purified antibody
Description: (§1) A variation of this assay uses microtitration plates coated with human β2-glycoprotein I/cardiolipin (β2-GPI/CL) instead of tetravalent peptide and tests the ability of monomeric peptides to block the binding of aPL antibody to the epitope(s) on β2-GPI/CL. In this assay, IgG-depleted human serum at an optimized concentration is used as a source of β2-GPI. The monomeric peptides at several concentrations are incubated with an optimized concentration of aPL antibody in a manner analogous to the assay which employs tetravalent peptide as a plate substrate. Following the incubation of aPL/peptide in (β2-GPI/CL) plates, antibody binding and the peptide concentration required for 50% inhibition is determined at half-maximal absorbance as in the tetravalent assay.
(§2) Peptide sequences for all five peptides immediately follow the table. All were tested using the competitive binding peptide ACA ELISA using CL/β2-GPI plates as described herein.
(§3) (B) Immulon I® 96-well, flat-bottom, polystyrene microtitration plates (Dynatech Laboratories, Inc., Chantilly, Va.) were coated with 30 μL/well of cardiolipin (CL, 50 μg; Sigma Chemical Co., St. Louis, Mo.) in ethanol. Two control wells received 30 μL ethanol only. After overnight evaporation at 4° C., each well was blocked with 200 μL of 5% (w/v) fish gelatin in PBS for 2 hours at RT.
During this incubation, variable amounts of each of six peptides were mixed with 22 μL ACA-6501 serum diluted with 3% fish gelatin in 1:1 TBS/PBS (final dilution of 1:400) in a final volume of 220 μL using Eppendorf microcentrifuge tubes. Specifically, in tube #1 were mixed 181.3 μL of 3% fish gelatin in TBS-PBS, 16.7 μL of peptide stock solution plus 22 μL of ACA-6501 serum diluted 40 times in 3% fish gelatin/TBS-PBS. Stock solutions ranged from 450-800 μg/mL for peptides #951 (diserine non-cyclized negative control), #952 (a lot of LJP 690), and thioethers CCTE-3G3, CHTE-3G3, HCTE-3G3 and HHTE-3G3. To tube #2 the following were added: 148 μL fish gelatin/TBS-PBS, […] of peptide stock solution, plus 22 μL of 40 times diluted ACA-6501 serum. Tube #3 contained 48 μL fish gelatin/TBS-PBS, […] of peptide stock solution, plus 22 μL of 40 times diluted ACA-6501 serum. The control tube #4 received 396 μL fish gelatin/TBS-PBS and 44 μL of 40 times diluted ACA-6501 serum (no peptide). Each of the tubes incubated for approximately 1 hour at RT.
(§4) The CL/β2-GPI microtitration plate was washed 5 times with TBS and 100 μL aliquots in duplicate from Eppendorf tubes #1, 2, 3, and 4 containing the antibody-peptide (or no peptide mixtures) were added to the wells. A volume of 100 μL from tube #4 was added to the duplicate control wells containing no cardiolipin. The microtitration plate was incubated for 1 hour at RT with agitation at 40 rpm in an orbital shaker (American Scientific, Rotator V), washed 5 times with TBS and then 100 μL of 1:1000 goat anti-human IgG alkaline phosphatase conjugate (Zymed, Cat No. 62-8422) in 0.5% (w/v) BSA-TBS was added. Following incubation for 1 hour at RT, the microtitration plate was again washed 5 times with TBS and the colorimetric enzyme detection developed by adding 100 μL of PMPP solution (7.8 g phenolphthalein monophosphate plus 69.5 g of 2-amino-2-methyl-1-propanol in 100 mL water stock solution diluted 1:26 with water). After 21 minutes, the reaction was stopped by adding 50 μL of 0.2 M Na2HPO4 (Mallinckrodt) to each well. Absorbance at 550 nm was read in a microplate reader (Bio-Tek Instruments, Model EL 311). The amount of peptide that inhibited ACA-6501 binding by 50%, the IC50, was calculated from the graph at the intersection of half-maximal absorbance with amount of peptide added.

[3] = biological target: ACA-6701; experiment: as above; design: species or system human; settings: for IC50 Values, ACA-6701: cyclic thioether analogs; for Percent Inhibition of AffACA by Peptide Monomers, 6701: peptide 1 mg/mL, affinity purified antibody
Description: as §1, §2, §3, §4

[4] = system: ACA-6641; experiment: as above; design: species or system human; settings: peptide 1 mg/mL, affinity purified antibody
Description: as §1, §2, §3, §4

[5] = system: ACA-6903; experiment: as above; design: species or system human; settings: peptide 1 mg/mL, affinity purified antibody
Description: as §1, §2, §3, §4

[6] = system: ACA-7005; experiment: as above; design: species or system human; settings: peptide 1 mg/mL, affinity purified antibody
Description: as §1, §2, §3, §4

[7] = system: ACA-7004; experiment: as above; design: species or system human; settings: peptide 1 mg/mL, affinity purified antibody
Description: as §1, §2, §3, §4

[8] = system: ACA-6644; experiment: as above; design: species or system human; settings: peptide 1 mg/mL, affinity purified antibody
Description: as §1, §2, §3, §4

[9] = system: ACA-6638; experiment: as above; design: species or system human; settings: peptide 1 mg/mL, affinity purified antibody
Description: as §1, §2, §3, §4

[10] = system: ACA-6626; experiment: as above; design: species or system human; settings: peptide 1 mg/mL, affinity purified antibody
Description: as §1, §2, §3, §4

[11] = system: ACA antibodies; experiment: Competitive binding peptide ACA ELISA, cardiolipin/β2-GPI-coated plates, panel of ACA antibodies (average); design: species or system human; settings: peptide 1 mg/mL, average over nine antibodies
Description: as §1, §2
As noted in Section I above, one synthetic peptide, 6641/3G3 was tested against several high titer ACA antisera. This peptide appeared to be crossreactive with the vast majority of ACA antisera tested as illustrated in FIG. 14.
as §3, §4

Row | Molecule | Relative Activity [1] | with ACA 6501 150 ug/mL [2] [µg/mL] | IC50 Values, ACA-6701 [3] [μg/0.1 mL] | IC50 Values, ACA-6501 [2] [μg/0.1 mL] | further results
1 | CC(C)C[C@@H]1NC(=O)[C@H](CCCCN)NC(=O)CNC(=O)[C@@H](CC(C)C)NC(=O)[C@@H](C(C)C)NC(=O)CNC(=O)[C@H](CC(C)C)NC(=O)[C@@H](N)CSSC[C@@H](C(=O)O)NC1=O [C L G dV dL G K L C] (H-CLG[dV][dL]GKLC-OH; disulfide 1-9) | 5.9 | 50 |  |  | 
2 | CC(C)C[C@@H]1NC(=O)[C@@H](NC(=O)[C@@H]2CCCN2C(=O)CN)CSSC[C@@H](C(=O)N2CCC[C@H]2C(=O)NCC(=O)O)NC(=O)[C@H](CC(C)C)NC(=O)[C@H](CCCCN)NC(=O)CNC(=O)[C@H](CC(C)C)NC(=O)[C@H](C(C)C)NC(=O)CNC1=O [G P C L G V L G K L C P G] (H-GPCLGVLGKLCPG-OH; disulfide 3-11) |  | 180 |  |  | 
3 | CC(C)C[C@@H]1NC(=O)[C@H](CCCCN)NC(=O)CNC(=O)[C@H](CC(C)C)NC(=O)[C@H](C(C)C)NC(=O)CNC(=O)[C@H](CC(C)C)NC(=O)[C@@H](N)CSSC[C@@H](C(=O)O)NC1=O [LJP 690, CLGVLGKLC] (H-CLGVLGKLC-OH; disulfide 1-9) | 3.5 |  | 4.0 | 10.0 | 
4 | CC(C)C[C@@H]1NC(=O)[C@H](CCCCN)NC(=O)CNC(=O)[C@H](CC(C)C)NC(=O)[C@H](C(C)C)NC(=O)CNC(=O)[C@H](CC(C)C)NC(=O)[C@@H](N)CSC[C@@H](C(=O)O)NC1=O [LJP 698] |  |  | 5.0 | 11.0 | 
5 | CC(C)C[C@@H]1NC(=O)[C@H](CCCCN)NC(=O)CNC(=O)[C@H](CC(C)C)NC(=O)[C@H](C(C)C)NC(=O)CNC(=O)[C@H](CC(C)C)NC(=O)[C@@H](N)CCSC[C@@H](C(=O)O)NC1=O [LJP 699] (H-[Abu(4-yl)]LGVLGKLC-OH; thioether 1-9) | 1.6 | 46 | 3.0 | 4.6 | 
6 | CC(C)C[C@@H]1NC(=O)[C@H](CCCCN)NC(=O)CNC(=O)[C@H](CC(C)C)NC(=O)[C@H](C(C)C)NC(=O)CNC(=O)[C@H](CC(C)C)NC(=O)[C@@H](N)CSCC[C@@H](C(=O)O)NC1=O [LJP 702] (H-CLGVLGKL[Abu(4-yl)]-OH; thioether 1-9; N-terminus and C-terminus assumed) |  | 92 | 3.2 | 9.2 | 
7 | CC(C)C[C@@H]1NC(=O)[C@H](CCCCN)NC(=O)CNC(=O)[C@H](CC(C)C)NC(=O)[C@H](C(C)C)NC(=O)CNC(=O)[C@H](CC(C)C)NC(=O)[C@@H](N)CCSCC[C@@H](C(=O)O)NC1=O [LJP 703] (H-[hCys]LGVLGKL[Abu(4-yl)]-OH; thioether 1-9; N-terminus and C-terminus assumed) |  | 80 | 3.6 | 8.0 | 
8 | CC(C)C[C@@H]1NC(=O)[C@@H](NC(=O)[C@@H]2CCCN2)CSSC[C@@H](C(=O)N2CCC[C@H]2C(=O)NCC(=O)O)NC(=O)[C@H](CC(C)C)NC(=O)[C@H](CCCCN)NC(=O)CNC(=O)[C@H](CC(C)C)NC(=O)[C@H](C(C)C)NC(=O)CNC1=O [P C L G V L G K L C P G] (H-PCLGVLGKLCPG-OH; disulfide 2-10) |  | 420 |  |  | 
9 | CC(C)C[C@@H]1NC(=O)[C@@H](NC(=O)[C@H]2CCCN2)CSSC[C@@H](C(=O)O)NC(=O)[C@H](CC(C)C)NC(=O)[C@H](CCCCN)NC(=O)CNC(=O)[C@H](CC(C)C)NC(=O)[C@H](C(C)C)NC(=O)CNC1=O [dP C L G V L G K L C] (H-[dP]CLGVLGKLC-OH; disulfide 2-10) |  | 120 |  |  | 
10 | CC(C)C[C@@H]1NC(=O)[C@H](CCCCN)NC(=O)[C@H](C)NC(=O)[C@H](CC(C)C)NC(=O)[C@H](C(C)C)NC(=O)CNC(=O)[C@H](CC(C)C)NC(=O)[C@@H](N)CSSC[C@@H](C(=O)O)NC1=O [peptide 925, CLGVLAKLC] (H-CLGVLAKLC-OH; disulfide 1-9) | 1.8 | 40 |  |  | 
11 | AGP DGNIADPRC PG (DGNIADPRCPG) [6626/4C7] |  |  |  |  | Percent Inhibition of AffACA by Peptide Monomers, 6641 [4]: 45%; Percent Inhibition of AffACA by Peptide Monomers, 6903 [5]: 77%; Percent Inhibition of AffACA by Peptide Monomers, 7005 [6]: 54%; Percent Inhibition of AffACA by Peptide Monomers, 7004 [7]: 99%; Percent Inhibition of AffACA by Peptide Monomers, 6644 [8]: 45%; Percent Inhibition of AffACA by Peptide Monomers, 6638 [9]: 96%; Percent Inhibition of AffACA by Peptide Monomers, 6626 [10]: 88%; Percent Inhibition of AffACA by Peptide Monomers, 6701 [3]: 69%; Percent Inhibition of AffACA by Peptide Monomers, Ave. [11]: 68%; Percent Inhibition of AffACA by Peptide Monomers, 6501 [2]: 39%
12 | AGP LSDPGYVRNIFH PG (LSDPGYVRNIFHPG) [6701/3B1] |  |  |  |  | Percent Inhibition of AffACA by Peptide Monomers, 6641 [4]: 43%; Percent Inhibition of AffACA by Peptide Monomers, 6903 [5]: 51%; Percent Inhibition of AffACA by Peptide Monomers, 7005 [6]: 23%; Percent Inhibition of AffACA by Peptide Monomers, 7004 [7]: 72%; Percent Inhibition of AffACA by Peptide Monomers, 6644 [8]: 37%; Percent Inhibition of AffACA by Peptide Monomers, 6638 [9]: 65%; Percent Inhibition of AffACA by Peptide Monomers, 6626 [10]: 43%; Percent Inhibition of AffACA by Peptide Monomers, 6701 [3]: 96%; Percent Inhibition of AffACA by Peptide Monomers, Ave. [11]: 52%; Percent Inhibition of AffACA by Peptide Monomers, 6501 [2]: 41%
